Results as given in the NIST ThermoML archive (doi:10.1021/je600552b).
Numbers after ± are expanded uncertainties.

Details: 101.33 kPa, Liquid, Falling or rolling sphere viscometry

Structure (SMILES) | viscosity (313.15 K) [mPa·s] | viscosity (323.15 K) [mPa·s] | viscosity (333.15 K) [mPa·s] | viscosity (343.15 K) [mPa·s] | viscosity (293.15 K) [mPa·s] | viscosity (303.15 K) [mPa·s] | kinematic viscosity (293.15 K) [m2/s] | kinematic viscosity (303.15 K) [m2/s] | kinematic viscosity (313.15 K) [m2/s] | kinematic viscosity (323.15 K) [m2/s] | kinematic viscosity (333.15 K) [m2/s] | kinematic viscosity (343.15 K) [m2/s]
CCCCCCCCCCCCCCCC(=O)OC [methyl hexadecanoate] | 3.764 ± 0.13 | 2.931 ± 0.1 | 2.336 ± 0.08 | 1.946 ± 0.067 |  |  |  |  |  |  |  | 
CC/C=C\C/C=C\C/C=C\CCCCCCCC(=O)OC [methyl (Z,Z,Z)-9,12,15-octadecatrienoate] | 2.79 ± 0.096 | 2.299 ± 0.079 | 1.862 ± 0.064 | 1.596 ± 0.055 | 4.022 ± 0.14 | 3.301 ± 0.11 |  |  |  |  |  | 
CC/C=C\C/C=C\C/C=C\CCCCCCCC(=O)OCC(COC(=O)CCCCCCC/C=C\C/C=C\C/C=C\CC)OC(=O)CCCCCCC/C=C\C/C=C\C/C=C\CC [trilinolenin] |  |  |  |  |  |  | 2.37e-05 ± 8.1e-07 | 1.76e-05 ± 6.1e-07 | 1.36e-05 ± 4.6e-07 | 1.07e-05 ± 3.7e-07 | 8.68e-06 ± 3e-07 | 7.18e-06 ± 2.5e-07
CCCCCCCC/C=C\CCCCCCCC(=O)OC [methyl cis-9-octadecenoate] | 3.939 ± 0.14 | 3.097 ± 0.11 | 2.472 ± 0.085 | 2.054 ± 0.071 | 6.37 ± 0.22 | 4.922 ± 0.17 |  |  |  |  |  | 
CCCCCCCCCCCC(=O)OC [methyl dodecanoate] | 2.044 ± 0.07 | 1.643 ± 0.056 | 1.383 ± 0.047 | 1.173 ± 0.04 | 3.096 ± 0.11 | 2.475 ± 0.085 |  |  |  |  |  | 
CCCCC/C=C\C/C=C\CCCCCCCC(=O)OC [methyl (Z,Z)-9,12-octadecadienate] | 3.166 ± 0.11 | 2.55 ± 0.088 | 2.078 ± 0.071 | 1.755 ± 0.06 | 4.798 ± 0.17 | 3.822 ± 0.13 |  |  |  |  |  | 
CCCCCCCCCCCCCC(=O)OC [methyl tetradecanoate] | 2.841 ± 0.098 | 2.252 ± 0.078 | 1.819 ± 0.063 | 1.521 ± 0.052 | 4.442 ± 0.15 | 3.496 ± 0.12 |  |  |  |  |  | 
CC/C=C\C/C=C\C/C=C\CCCCCCCC(=O)O [all-cis-9,12,15-octadecatrienoic acid] |  |  |  |  |  |  | 1.55e-05 ± 7.9e-07 | 1.24e-05 ± 6.3e-07 | 8.91e-06 ± 4.5e-07 | 7.26e-06 ± 3.7e-07 | 5.96e-06 ± 3e-07 | 5.13e-06 ± 2.6e-07
